According to patent US8445207B2, “Genes based on thalidomide, valproic acid and methotrexate treatment for screening of drug inducing teratogenicity and screening method using thereof” (priority 2009, dated 2013):

How the values were obtained:
[1] = test system: JEG-3 (human placental choriocarcinoma cell line); assay: Oligo microarray gene expression in drug-treated JEG-3 (Cy5 treated / Cy3 control); assay type: cell-based
Experimental: Thalidomide, valproic acid, and methotrexate were treated to human placental choriocarcinoma cell line at the concentrations determined above (Inhibition concentration: the concentration that can kill approximately 30% of the total cells, that is the concentration of 70% viability, IC30). mRNA was extracted from the drug treated cell line, followed by synthesis of cDNA which was labeled with Cy5. The non-treated control was labeled with Cy3. The fluorescence labeled cDNA was hybridized with 41K (thalidomide), 44K (valproic acid, methotrexate) human whole genome oligomicroarray chips (Agilent, USA), followed by fluorescent image scanning to analyze gene expression patterns (see FIG. 4). Volcano Plot of each substance was also attached. Y axis indicates probability (generally converted by −log 10). X axis indicates differential expression, which is presented by log-ratio.
Total RNA was separated from the treated cell by using trizol reagent (Invitrogen Life Technologies, USA) according to the manufacture's instructions, followed by purification using RNeasy mini kit (Qiagen, USA). Genomic DNA was eliminated during RNA purification using RNase-free DNase set (Qiagen, USA).
30 μg of the total RNA obtained above and 2 μg (1 μg/μl) of oligo (dT) primer were mixed, followed by reaction at 65° C. for 10 minutes. Annealing was performed in ice right after the reaction. Reagents were prepared as shown in Table 1 for reverse transcription of the annealed RNA.
The total RNA separated from the control group JEG-3 cells was labeled with Cy3-dUTP (green) and the total RNA separated from the experiment group JEG-3 cells treated with thalidomide, valproic acid and methotrexate was labeled with Cy5-dUTP (red). At this time, the two samples were mixed and purified by Microcon YM-30 column (Millipore, USA).
Hybridization and washing were performed by the manufacturer's (GenoCheck, Korea) instructions. Particularly, hybridization was performed in a 62° C. oven for 12 hours. As a DNA microarray chip, 44 k whole human genome oligo microarray (Agilent, USA) was used. After washing (2 minutes with 2×SSC/0.1% SDS, three minutes with 1×SSC, 2 minutes with 0.2×SSC), the slide was dried by centrifugation at 800 rpm for 3 minutes.
Hybridization image on the slide was scanned with Genepix 4000B (Axon Instruments, USA). Fluorescence image of the chip on which non-hybridized genes had been washed out was obtained by using laser fluorescence scanner. Green fluorescence image indicates the activity of gene specifically expressed in the control group and red fluorescence image indicates the activity of gene specifically expressed in the experimental group. […] Scanned image was analyzed by using GenePix 4.1 software (Axon Instruments, USA) to calculate gene expression rate.

[2] = test system: JEG-3 (human placental choriocarcinoma cell line); assay: Real-time RT-PCR quantification of gene expression in drug-treated JEG-3; assay type: cell-based
Experimental: My IQ Real-Time PCR (Bio-Rad, USA) was performed to quantify the expressions of those genes.
Particularly, cDNA was synthesized using oligo dT primer and Superscript kit (Omniscipt™ kit, Qiagen, Co., USA) by reverse transcription. 0.2 μl of the cDNA, 3.8 μl of water, 0.5 μg of a sense primer, 0.5 μg of an antisense primer, and […] of SYBR Green I supermix (Bio-Rad, USA) were mixed, which was placed in a PCR tube, followed by real-time RT-PCR in My IQ real-time PCR machine as follows: Step 1: 95°, 3 minutes; Step 2 (45 cycles): Step 2-1: 95°, 10 seconds; Step 2-2: 55-65° 45 seconds; Step 3: 95°, 1 minute; Step 4: 55°, 1 minute; Step 5 (80 cycles): 55°, 10 seconds. SYBR green I (Bio-Rad, USA) staining was performed to quantify the PCR product. SYBR I staining is the staining method using double stranded DNA binding. So, the more double stranded DNA is generated during PCR, the stronger the fluorescence intensity becomes. First, target gene and endogenous control (GAPDH) primers were added to SYBR green master mix, followed by PCR. Then, primer optimization was performed to determine a proper concentration. Synthesized cDNA and each primer were mixed (Table 4), to which SYBR master mix was added, followed by PCR.

[3] = out of 21797 (thalidomide), 21921 (valproic acid), 24006 (methotrexate) genes
[4] = treated at IC30, up-regulated gene, (k) common gene which has no function

O=C1CCC(N2C(=O)c3ccccc3C2=O)C(=O)N1 (stereo not shown) [THA, thalidomide]
cDNA microarray (Cy3/Cy5 ratio), KIAA0310 ([1]; GenBank AB002308): 1.94
cDNA microarray (Cy3/Cy5 ratio), ATP10B ([1]; GenBank AB018258): 3.11
cDNA microarray (Cy3/Cy5 ratio), TTF2 ([1]; GenBank AB209845): 1.58
cDNA microarray (Cy3/Cy5 ratio), TncRNA ([1]; GenBank AF001893): 1.5
cDNA microarray (Cy3/Cy5 ratio), C4orf19 ([1]; GenBank AK001879): 1.51
cDNA microarray (Cy3/Cy5 ratio), CYP19A1 ([1]; GenBank AK023571): 2.03
cDNA microarray (Cy3/Cy5 ratio), SLC40A1 ([1]; GenBank AK023574): 1.5
cDNA microarray (Cy3/Cy5 ratio), ABTB2 ([1]; GenBank AK095632): 1.78
cDNA microarray (Cy3/Cy5 ratio), TUBB3 ([1]; GenBank AK122757): 2.03
cDNA microarray (Cy3/Cy5 ratio), MGC27016 ([1]; GenBank AK125877): 1.51
cDNA microarray (Cy3/Cy5 ratio), GLCCI1 ([1]; GenBank AK126731): 1.56
cDNA microarray (Cy3/Cy5 ratio), TFCP2L4 ([1]; GenBank BC036890): 1.61
cDNA microarray (Cy3/Cy5 ratio), RGS2 ([1]; GenBank BC042755): 1.78
cDNA microarray (Cy3/Cy5 ratio), SIAT7A ([1]; GenBank BC063830): 2.54
cDNA microarray (Cy3/Cy5 ratio), B7-H4 ([1]; GenBank BX648021): 0.52
cDNA microarray (Cy3/Cy5 ratio), COBLL1 ([1]; GenBank BX649112): 1.85
cDNA microarray (Cy3/Cy5 ratio), CGA ([1]; GenBank NM_000735): 3.04
cDNA microarray (Cy3/Cy5 ratio), PARP1 ([1]; GenBank NM_001618): 0.66
cDNA microarray (Cy3/Cy5 ratio), SERPINB9 ([1]; GenBank NM_004155): 1.73
cDNA microarray (Cy3/Cy5 ratio), ST8SIA4 ([1]; GenBank NM_005668): 1.69
cDNA microarray (Cy5 treated / Cy3 control ratio), ABL1 ([1]; GenBank NM_007313): 0.65
cDNA microarray (Cy3/Cy5 ratio), GRLF1 ([1]; GenBank NM_024342): 0.55
cDNA microarray (Cy3/Cy5 ratio), LGP1 ([1]; GenBank NM_032484): 0.58
cDNA microarray (Cy3/Cy5 ratio), NCOA3 ([1]; GenBank NM_181659): 1.64
cDNA microarray (Cy3/Cy5 ratio), SR140 ([1]; GenBank XM_031553): 0.5
cDNA microarray (Cy3/Cy5 ratio), SLC7A8 ([1]; GenBank Y18483): 1.71
Ratio of intermediate value, IGF2 ([1]; Genbank AK074614, drug at IC30): 0.64
Ratio of intermediate value, GRLF1 ([1]; Genbank BI494022, NM_024342, drug at IC30): 0.55
Ratio of intermediate value, B7-H4 ([1]; Genbank BX648021, drug at IC30): 0.52
Ratio of intermediate value, PARP1 ([1]; Genbank NM_001618, drug at IC30): 0.66
Ratio of intermediate value, NRP1 ([1]; Genbank NM_003873, drug at IC30): 0.62
Ratio of intermediate value, HAND1 ([1]; Genbank NM_004821, drug at IC30): 0.61
Ratio of intermediate value, ABL1 ([1]; Genbank NM_007313, drug at IC30): 0.65
Ratio of intermediate value, LGP1 ([1]; Genbank NM_032484, drug at IC30): 0.58
Ratio of intermediate value, SR140 ([1]; Genbank XM_031553, drug at IC30): 0.50
genes down-regulated (ratio of intermediate value less than 0.666) ([1]; JEG-3, drug at IC30, 48 hours): 0.34%
genes up-regulated (ratio of intermediate value more than 1.5) ([1]; JEG-3, drug at IC30, 48 hours): 0.95%
number of genes down-regulated [1, 3]: 74
number of genes up-regulated [1, 3]: 208
Ratio of intermediate value, gene ATP10B (AB018258, ATPase, Class V, type 10B) [1, 4]: 3.11
Ratio of intermediate value, gene BQ186674 (cDNA clone UI-E-EJ1-ajr-f-10-0-UI, Hypothetical gene supported by AF086204) [1, 4]: 1.60
Ratio of intermediate value, gene BX111592 (Transcribed locus, moderately similar to XP_066443.6 PREDICTED: similar to paraneoplastic antigen like 6A) [1, 4]: 2.17
Ratio of intermediate value, gene CGA (NM_000735, Glycoprotein hormones, alpha polypeptide) [1, 4]: 3.04
Ratio of intermediate value, gene COBLL1 (BX649112, COBL-like 1) [1, 4]: 1.85
Ratio of intermediate value, gene CYP19A1 (AK023571, Cytochrome P450, family 19, subfamily A, polypeptide 1) [1, 4]: 2.03
Ratio of intermediate value, gene FLJ11017 (AK001879, Hypothetical protein FLJ11017) [1, 4]: 1.51
Ratio of intermediate value, gene GLCCI1 (AK126731, Glucocorticoid induced transcript 1) [1, 4]: 1.56
Ratio of intermediate value, gene KIAA0310 (AB002308, KIAA0310) [1, 4]: 1.94
Ratio of intermediate value, gene MGC27016 (AK125877, Hypothetical protein MGC27016) [1, 4]: 1.51
Ratio of intermediate value, gene NCOA3 (NM_181659, Nuclear receptor coactivator 3) [1, 4]: 1.64
Ratio of intermediate value, gene RGS2 (BC042755, Regulator of G-protein signalling 2, 24 kDa) [1, 4]: 1.78
Ratio of intermediate value, gene SIAT7A (BC063830, ST6 (alpha-N-acetyl-neuraminyl-2,3-beta-galactosyl-1,3)-N-acetylgalactosaminide alpha-2,6-sialyltransferase 1) [1, 4]: 2.54
Ratio of intermediate value, gene SIAT8D (NM_005668, ST8 alpha-N-acetyl-neuraminide alpha-2,8-sialyltransferase 4) [1, 4]: 1.69
Ratio of intermediate value, gene SLC7A8 (Y18483, Solute carrier family 7 (cationic amino acid transporter, y+ system), member 8) [1, 4]: 1.71
Ratio of intermediate value, gene SLC40A1 (AK023574, Solute carrier family 40 (iron-regulated transporter), member 1) [1, 4]: 1.50
Ratio of intermediate value, gene TFCP2L4 (BC036890, Grainyhead-like 3 (Drosophila)) [1, 4]: 1.61
Ratio of intermediate value, gene TTF2 (AB209845, Transcription termination factor, RNA polymerase II) [1, 4]: 1.58
Ratio of intermediate value, gene TUBB3 (AK122757, Tubulin, beta 3) [1, 4]: 2.03
Ratio of intermediate value, gene TncRNA (AF001893, Trophoblast-derived noncoding RNA) [1, 4]: 1.50
Real time PCR (Relative ratio), KIAA0310 ([2]; GenBank AB002308): 4.78
Real time PCR (Relative ratio), ATP10B ([2]; GenBank AB018258): 4.7689
Real time PCR (Relative ratio), TTF2 ([2]; GenBank AB209845): 1.6625
Real time PCR (Relative ratio), TncRNA ([2]; GenBank AF001893): 5.9587
Real time PCR (Relative ratio), C4orf19 ([2]; GenBank AK001879): 1.6143
Real time PCR (Relative ratio), CYP19A1 ([2]; GenBank AK023571): 2.6408
Real time PCR (Relative ratio), SLC40A1 ([2]; GenBank AK023574): 2.1558
Real time PCR (Relative ratio), ABTB2 ([2]; GenBank AK095632): 1.4359
Real time PCR (Relative ratio), TUBB3 ([2]; GenBank AK122757): 2.8114
Real time PCR (Relative ratio), MGC27016 ([2]; GenBank AK125877): 2.3438
Real time PCR (Relative ratio), GLCCI1 ([2]; GenBank AK126731): 1.5509
Real time PCR (Relative ratio), TFCP2L4 ([2]; GenBank BC036890): 2.5111
Real time PCR (Relative ratio), RGS2 ([2]; GenBank BC042755): 3.4255
Real time PCR (Relative ratio), SIAT7A ([2]; GenBank BC063830): 2.5019
Real time PCR (Relative ratio), B7-H4 ([2]; GenBank BX648021): 0.5
Real time PCR (Relative ratio), COBLL1 ([2]; GenBank BX649112): 1.5201
Real time PCR (Relative ratio), CGA ([2]; GenBank NM_000735): 2.9963
Real time PCR (Relative ratio), PARP1 ([2]; GenBank NM_001618): 0.805
Real time PCR (Relative ratio), SERPINB9 ([2]; GenBank NM_004155): 2.2852
Real time PCR (Relative ratio), ST8SIA4 ([2]; GenBank NM_005668): 1.8635
Real time PCR (Relative ratio), ABL1 ([2]; GenBank NM_007313): 0.6781
Real time PCR (Relative ratio), GRLF1 ([2]; GenBank NM_024342): 0.689
Real time PCR (Relative ratio), LGP1 ([2]; GenBank NM_032484): 0.4867
Real time PCR (Relative ratio), NCOA3 ([2]; GenBank NM_181659): 2.9283
Real time PCR (Relative ratio), SR140 ([2]; GenBank XM_031553): 0.6423
Real time PCR (Relative ratio), SLC7A8 ([2]; GenBank Y18483): 1.6327
